# ChEMBL document CHEMBL1151414, “Plant anticancer agents. XXIII. 6 alpha-senecioyloxychaparrin, a new antileukemic quassinoid from Simaba multiflora” (1983)
# Experiments:
# Type in all cases: functional
# KB = test: Cytotoxicity against human KB cells by NCI method; conditions: read-out: ED50 (the source's name)
# P388 [1] = test: In vivo antitumor activity against mouse P388 cells at 3.0 mg/kg relative to control
# P388 [2] = test: In vivo antitumor activity against mouse P388 cells at 1.5 mg/kg relative to control
# P388 [3] = test: In vivo antitumor activity against mouse P388 cells at 0.75 mg/kg relative to control
# P388 [4] = test: In vivo antitumor activity against mouse P388 cells at 0.38 mg/kg relative to control
# P388 [5] = test: In vivo antitumor activity against mouse P388 cells at 2.5 mg/kg relative to control
# P388 [6] = test: In vivo antitumor activity against mouse P388 cells at 1.25 mg/kg relative to control
# P388 [7] = test: In vivo antitumor activity against mouse P388 cells at 0.63 mg/kg relative to control
# P388 [8] = test: In vivo antitumor activity against mouse P388 cells at 0.31 mg/kg relative to control
compound,measurement,setting,value
CC(C)=CC(=O)O[C@@H]1[C@H]2C(C)=C[C@H](O)[C@H](O)[C@]2(C)[C@H]2[C@]3(O)OC[C@@]24[C@@H]1OC(=O)C[C@H]4[C@@H](C)[C@H]3O,EC50,KB,3 ng/mL
same,T/C,P388 [1],133%
same,T/C,P388 [2],133%
same,T/C,P388 [3],160%
same,T/C,P388 [4],142%
CC(C)=CC(=O)O[C@@H]1[C@H]2C(C)=CC(=O)[C@H](O)[C@]2(C)[C@H]2[C@]3(O)OC[C@@]24[C@@H]1OC(=O)C[C@H]4[C@@H](C)[C@H]3O,EC50,KB,3 ng/mL
same,T/C,P388 [5],136%
same,T/C,P388 [6],133%
same,T/C,P388 [7],176%
same,T/C,P388 [8],145%
CC1=CC(=O)[C@@H](O)[C@]2(C)[C@H]3[C@@]4(O)OC[C@@]35[C@@H](C[C@@H]12)OC(=O)C[C@H]5[C@@H](C)[C@H]4O [CHAPARRINONE],EC50,KB,25 ng/mL
